Results from ChEMBL document CHEMBL3045024, “Synthesis, structure and insecticidal activities of some novel amides containing N-pyridylpyrazole moeities” (2012).
Calls of active or inactive are those of the source. The calls are words filed in the database; no cut-off is given here.

Tests used:
[1] = system: Plutella xylostella; test: Insecticidal activity against Plutella xylostella (diamondback moth) second-instar larvae infested on compound pre-treated cabbage leaves assessed as mortality at 200 ug/mL measured 3 days post compound treatment by leaf-dipping assay; assay type: functional
[2] = system: Mythimna separata; test: Insecticidal activity against fourth-instar larvae of Mythimna separata (Oriental armyworm) reared on compound pre-treated corn leaves assessed as mortality at 10 ug/mL measured 72 hr post compound treatment by leaf-dipping assay; assay type: functional
[3] = system: Culex pipiens pallens; test: Insecticidal activity against Culex pipiens pallens (mosquito) fourth-instar larvae assessed as mortality at 2 ug/mL measured 72 hr post compound treatment; assay type: functional
[4] = system: Spodoptera exigua; test: Insecticidal activity against Spodoptera exigua third-instar larvae infested on compound pre-treated cabbage leaves assessed as mortality at 100 ug/mL measured 3 days post compound treatment by leaf-dipping assay; assay type: functional
[5] = system: Spodoptera exigua; test: Insecticidal activity against Spodoptera exigua third-instar larvae infested on compound pre-treated cabbage leaves assessed as mortality at 50 ug/mL measured 3 days post compound treatment by leaf-dipping assay; assay type: functional
[6] = system: Plutella xylostella; test: Insecticidal activity against Plutella xylostella (diamondback moth) second-instar larvae infested on compound pre-treated cabbage leaves assessed as mortality at 100 ug/mL measured 3 days post compound treatment by leaf-dipping assay; assay type: functional
[7] = system: Mythimna separata; test: Insecticidal activity against fourth-instar larvae of Mythimna separata (Oriental armyworm) reared on compound pre-treated corn leaves assessed as mortality at 200 ug/mL measured 72 hr post compound treatment by leaf-dipping assay; assay type: functional
[8] = system: Mythimna separata; test: Insecticidal activity against fourth-instar larvae of Mythimna separata (Oriental armyworm) reared on compound pre-treated corn leaves assessed as mortality at 50 ug/mL measured 72 hr post compound treatment by leaf-dipping assay; assay type: functional
[9] = system: Spodoptera exigua; test: Insecticidal activity against Spodoptera exigua third-instar larvae infested on compound pre-treated cabbage leaves assessed as mortality at 25 ug/mL measured 3 days post compound treatment by leaf-dipping assay; assay type: functional
[10] = system: Mythimna separata; test: Insecticidal activity against fourth-instar larvae of Mythimna separata (Oriental armyworm) reared on compound pre-treated corn leaves assessed as mortality at 5 ug/mL measured 72 hr post compound treatment by leaf-dipping assay; assay type: functional
[11] = system: Plutella xylostella; test: Insecticidal activity against Plutella xylostella (diamondback moth) second-instar larvae infested on compound pre-treated cabbage leaves assessed as mortality at 50 ug/mL measured 3 days post compound treatment by leaf-dipping assay; assay type: functional
[12] = system: Mythimna separata; test: Insecticidal activity against fourth-instar larvae of Mythimna separata (Oriental armyworm) reared on compound pre-treated corn leaves assessed as mortality at 25 ug/mL measured 72 hr post compound treatment by leaf-dipping assay; assay type: functional
[13] = system: Spodoptera exigua; test: Insecticidal activity against Spodoptera exigua third-instar larvae infested on compound pre-treated cabbage leaves assessed as mortality at 200 ug/mL measured 3 days post compound treatment by leaf-dipping assay; assay type: functional
[14] = system: Mythimna separata; test: Insecticidal activity against fourth-instar larvae of Mythimna separata (Oriental armyworm) reared on compound pre-treated corn leaves assessed as induction of abnormal symptoms at 10 ug/mL measured 36 hr post compound treatment by leaf-dipping assay; assay type: functional, organism-based
[15] = system: Mythimna separata; test: Insecticidal activity against fourth-instar larvae of Mythimna separata (Oriental armyworm) reared on compound pre-treated corn leaves assessed as mortality at 100 ug/mL measured 72 hr post compound treatment by leaf-dipping assay; assay type: functional
[16] = system: Plutella xylostella; test: Insecticidal activity against Plutella xylostella (diamondback moth) second-instar larvae infested on compound pre-treated cabbage leaves assessed as mortality at 25 ug/mL measured 3 days post compound treatment by leaf-dipping assay; assay type: functional

## O=C(Nc1ccc([N+](=O)[O-])cc1Cl)c1cc(Br)nn1-c1ncccc1Cl
[1]
  mortality at 200 µg/mL: 78%
[2]
  mortality at 10 µg/mL: 80%
[3]
  mortality at 2 µg/mL: 80%
[4]
  mortality at 100 µg/mL: 86%
[5]
  mortality at 50 µg/mL: 78%
[6]
  mortality at 100 µg/mL: 72%
[7]
  mortality at 200 µg/mL: 100%
[8]
  mortality at 50 µg/mL: 100%
[9]
  mortality at 25 µg/mL: 65%
[10]
  mortality at 5 µg/mL: 0%
[11]
  mortality at 50 µg/mL: 0%
[12]
  mortality at 25 µg/mL: 100%
[13]
  mortality at 200 µg/mL: 91%
[14]
  Activity: Active
[15]
  mortality at 100 µg/mL: 100%

## O=C(Nc1ccc(Cl)cc1)c1cc(Br)nn1-c1ncccc1Cl
[1]
  mortality at 200 µg/mL: 100%
[2]
  mortality at 10 µg/mL: 0%
[3]
  mortality at 2 µg/mL: 10%
[4]
  mortality at 100 µg/mL: 100%
[5]
  mortality at 50 µg/mL: 100%
[6]
  mortality at 100 µg/mL: 98%
[7]
  mortality at 200 µg/mL: 100%
[8]
  mortality at 50 µg/mL: 100%
[9]
  mortality at 25 µg/mL: 100%
[16]
  mortality at 25 µg/mL: 97%
[11]
  mortality at 50 µg/mL: 100%
[12]
  mortality at 25 µg/mL: 70%
[13]
  mortality at 200 µg/mL: 100%
[15]
  mortality at 100 µg/mL: 100%

## O=C(Nc1ccc(F)cc1)c1cc(Br)nn1-c1ncccc1Cl
[1]
  mortality at 200 µg/mL: 100%
[3]
  mortality at 2 µg/mL: 0%
[4]
  mortality at 100 µg/mL: 100%
[5]
  mortality at 50 µg/mL: 92%
[6]
  mortality at 100 µg/mL: 98%
[7]
  mortality at 200 µg/mL: 100%
[8]
  mortality at 50 µg/mL: 100%
[9]
  mortality at 25 µg/mL: 96%
[16]
  mortality at 25 µg/mL: 88%
[11]
  mortality at 50 µg/mL: 99%
[12]
  mortality at 25 µg/mL: 50%
[13]
  mortality at 200 µg/mL: 95%
[15]
  mortality at 100 µg/mL: 100%

## CNC(=O)c1cc(Cl)cc(C)c1NC(=O)c1cc(Br)nn1-c1ncccc1Cl [CHLORANTRANILIPROLE]
[3]
  mortality at 2 µg/mL: 100%
[5]
  mortality at 50 µg/mL: 100%
[9]
  mortality at 25 µg/mL: 100%
[10]
  mortality at 5 µg/mL: 100%
[16]
  mortality at 25 µg/mL: 94%
[11]
  mortality at 50 µg/mL: 100%
[14]
  Activity: Active

## Cc1cc(Br)cc(C)c1NC(=O)c1cc(Br)nn1-c1ncccc1Cl
[1]
  mortality at 200 µg/mL: 89%
[2]
  mortality at 10 µg/mL: 30%
[3]
  mortality at 2 µg/mL: 30%
[4]
  mortality at 100 µg/mL: 100%
[5]
  mortality at 50 µg/mL: 89%
[6]
  mortality at 100 µg/mL: 72%
[7]
  mortality at 200 µg/mL: 100%
[8]
  mortality at 50 µg/mL: 100%
[9]
  mortality at 25 µg/mL: 93%
[11]
  mortality at 50 µg/mL: 0%
[12]
  mortality at 25 µg/mL: 100%
[13]
  mortality at 200 µg/mL: 100%
[15]
  mortality at 100 µg/mL: 100%

## Cc1ccc(NC(=O)c2cc(Br)nn2-c2ncccc2Cl)c(C)c1
[7]
  mortality at 200 µg/mL: 100%
[8]
  mortality at 50 µg/mL: 0%
[15]
  mortality at 100 µg/mL: 70%

## O=C(Nc1ccc([N+](=O)[O-])cc1Br)c1cc(Br)nn1-c1ncccc1Cl
[1]
  mortality at 200 µg/mL: 100%
[3]
  mortality at 2 µg/mL: 40%
[4]
  mortality at 100 µg/mL: 100%
[5]
  mortality at 50 µg/mL: 100%
[6]
  mortality at 100 µg/mL: 98%
[7]
  mortality at 200 µg/mL: 100%
[8]
  mortality at 50 µg/mL: 30%
[9]
  mortality at 25 µg/mL: 100%
[16]
  mortality at 25 µg/mL: 90%
[11]
  mortality at 50 µg/mL: 96%
[13]
  mortality at 200 µg/mL: 100%
[15]
  mortality at 100 µg/mL: 100%

## Cc1cc(Cl)cc([N+](=O)[O-])c1NC(=O)c1cc(Br)nn1-c1ncccc1Cl
[1]
  mortality at 200 µg/mL: 95%
[3]
  mortality at 2 µg/mL: 20%
[4]
  mortality at 100 µg/mL: 100%
[5]
  mortality at 50 µg/mL: 95%
[6]
  mortality at 100 µg/mL: 89%
[7]
  mortality at 200 µg/mL: 100%
[8]
  mortality at 50 µg/mL: 100%
[9]
  mortality at 25 µg/mL: 92%
[16]
  mortality at 25 µg/mL: 76%
[11]
  mortality at 50 µg/mL: 84%
[12]
  mortality at 25 µg/mL: 60%
[13]
  mortality at 200 µg/mL: 98%
[15]
  mortality at 100 µg/mL: 100%

## O=C(Nc1ccc(Cl)cc1[N+](=O)[O-])c1cc(Br)nn1-c1ncccc1Cl
[3]
  mortality at 2 µg/mL: 40%
[7]
  mortality at 200 µg/mL: 10%

## Cc1cccc(C)c1NC(=O)c1cc(Br)nn1-c1ncccc1Cl
[7]
  mortality at 200 µg/mL: 100%
[8]
  mortality at 50 µg/mL: 40%
[15]
  mortality at 100 µg/mL: 80%

## Cc1cc([N+](=O)[O-])ccc1NC(=O)c1cc(Br)nn1-c1ncccc1Cl
[2]
  mortality at 10 µg/mL: 50%
[3]
  mortality at 2 µg/mL: 40%
[7]
  mortality at 200 µg/mL: 100%
[8]
  mortality at 50 µg/mL: 100%
[12]
  mortality at 25 µg/mL: 80%
[15]
  mortality at 100 µg/mL: 100%

## O=C(Nc1ccc(F)c(Cl)c1)c1cc(Br)nn1-c1ncccc1Cl
[7]
  mortality at 200 µg/mL: 100%
[15]
  mortality at 100 µg/mL: 0%

## CCOc1ccc(NC(=O)c2cc(Br)nn2-c2ncccc2Cl)cc1
[3]
  mortality at 2 µg/mL: 30%
[7]
  mortality at 200 µg/mL: 100%
[15]
  mortality at 100 µg/mL: 0%

## O=C(Nc1cc(Cl)ccc1Cl)c1cc(Br)nn1-c1ncccc1Cl
[3]
  mortality at 2 µg/mL: 10%
[7]
  mortality at 200 µg/mL: 0%

## Cc1cccc([N+](=O)[O-])c1NC(=O)c1cc(Br)nn1-c1ncccc1Cl
[3]
  mortality at 2 µg/mL: 50%
[7]
  mortality at 200 µg/mL: 100%
[8]
  mortality at 50 µg/mL: 20%
[15]
  mortality at 100 µg/mL: 80%

## O=C(Nc1ccc(I)cc1)c1cc(Br)nn1-c1ncccc1Cl
[3]
  mortality at 2 µg/mL: 100%
[7]
  mortality at 200 µg/mL: 100%
[8]
  mortality at 50 µg/mL: 50%
[15]
  mortality at 100 µg/mL: 100%

## O=C(Nc1ccc([N+](=O)[O-])cc1)c1cc(Br)nn1-c1ncccc1Cl
[3]
  mortality at 2 µg/mL: 20%
[7]
  mortality at 200 µg/mL: 100%
[8]
  mortality at 50 µg/mL: 20%
[15]
  mortality at 100 µg/mL: 90%

## Cc1cc(Cl)cc(C)c1NC(=O)c1cc(Br)nn1-c1ncccc1Cl
[1]
  mortality at 200 µg/mL: 100%
[2]
  mortality at 10 µg/mL: 20%
[3]
  mortality at 2 µg/mL: 30%
[4]
  mortality at 100 µg/mL: 100%
[5]
  mortality at 50 µg/mL: 98%
[6]
  mortality at 100 µg/mL: 100%
[7]
  mortality at 200 µg/mL: 100%
[8]
  mortality at 50 µg/mL: 100%
[9]
  mortality at 25 µg/mL: 94%
[16]
  mortality at 25 µg/mL: 94%
[11]
  mortality at 50 µg/mL: 97%
[12]
  mortality at 25 µg/mL: 80%
[13]
  mortality at 200 µg/mL: 100%
[15]
  mortality at 100 µg/mL: 100%

## O=C(Nc1cccc(Cl)c1)c1cc(Br)nn1-c1ncccc1Cl
[7]
  mortality at 200 µg/mL: 0%

## Cc1cc([N+](=O)[O-])cc(Cl)c1NC(=O)c1cc(Br)nn1-c1ncccc1Cl
[2]
  mortality at 10 µg/mL: 30%
[7]
  mortality at 200 µg/mL: 100%
[8]
  mortality at 50 µg/mL: 100%
[12]
  mortality at 25 µg/mL: 70%
[15]
  mortality at 100 µg/mL: 100%
